These results are taken from publication PMC9227250, “Design, Synthesis and Cytotoxic Activity Evaluation of Newly Synthesized Amides-Based TMP Moiety as Potential Anticancer Agents over HepG2 Cells” (Molecules, 2022).

One data set relates to pan HDAC. Also on record: method as in doi:10.1039/D0NJ01274B. The note with it: read-out: pan HDAC inhibitory activity IC50; cited from earlier work.
A further data set deals with HepG2 cells. Nature of the data set: MTT cytotoxicity assay against HepG2 cell line. Format: cell-based. Conditions: Homo sapiens, mean of three independent replicates ± SE. The procedure: (§1) Cytotoxic activity was carried out using MTT colorimetric antiproliferative assay to investigate the effect of the prepared molecules on HepG2 as well as HL-7702 cell lines. See Section 4.3.1 in Supplementary Data.
(§2) 4.3.1. Cytotoxic activity evaluation
(§3) To measure the cytotoxic actvity of the amide derivatives 2-6e in hepatocellular carcinoma (HepG2) cell line (ATCC Cat No. HB-8065) as well as normal human liver cell line HL-7702 (ATCC Cat. No. 77402), cell viability assay was assessed using MTT assay method. Cells at density of 1 x 104 were seeded in a 96-well plate at 37 °C for 24 h under 5% CO2. After incubation, the cells were treated with different concentrations of the test schiff bases 2-6e and incubated for 24 h, then 20 µl of MTT solution at 5 mg/mL was applied and incubated for 4 h at 37 °C . Dimethyl sulphoxide (DMSO) in volume of 100 µl was added to each well to dissolve the purple formazan that had formed. The color intensity of the formazan product, which represents the growth condition of the cells, is quantified by using an ELISA plate reader (EXL 800, USA) at 450 nm absorbance. The experimental conditions were carried out with at least three replicates, and the experiments were repeated at least three times. […]
On the technique in general: Tetrazolium dyes change colour on reduction, which living cells bring about.

In a further data set the target is T1, β-tubulin (Homo sapiens, UniProt P07437+P68363).
T1 construct: […]
The experiment in a line: Tubulin polymerization inhibition assay (Human Beta-tubulin ELISA kit). Format: biochemical. The note with it: ELISA for β-tubulin, compared with untreated control cells. The procedure:
See Section 4.3.3 in Supplementary Data.
4.3.3. Tubulin inhibitions Assay […]
manufacturer’s instructions using # abcam Human Beta-tubulin simplestep ELISA Kit […]
Cell cycle analysis in HepG2 cells was investigated using fluorescent Annexin V - FITC/ PI detection kit (BioVision EZCellTM Cell Cycle Analysis Kit Catalog #K920) […]
After treatment, cells were washed twice in PBS, fixed in 70% ethanol, rinsed again with PBS. Cells were collected by centrifugation at 2000 rpm for 5 min and stained with DNA […]
The samples were immediately analyzed using Facs Calibur flow cytometer (Becton and Dickinson, Heidelberg, Germany).
Apoptosis in HepG2 cells was investigated using fluorescent Annexin V-FITC/ PI detection kit (BioVision Annexin V-FITC Apoptosis Detection Kit, Catalog #: K101) […]
immediately analyzed using FACS Calibur flow cytometer (Becton and Dickinson, […]
Caspase 3/7 in HepG2 cells was investigated using CellEvent® Caspase 3/7 Green Detection Flow Cytometry Assay Kit. Caspase 3/7 activity in HepG2 cell line was […]
CellEvent® caspase 3/7 green detection flow cytometry assay kit according to manufacturer’s directions. […]
harvested and washed with ice cold PBS, and cell lysates were prepared and […]
A general note: In an ELISA, binding on a coated surface is turned into a signal by an enzyme label.

The next data set relates to HL-7702 cells. Nature of the data set: MTT cytotoxicity assay against normal liver cell line HL-7702. Format: cell-based, human. Conditions: Homo sapiens, L02; MTT assay, normal liver cell line HL-7702, mean of three independent replicates ± SE. The procedure:
as §1, §2, §3

Another data set has as its system HDAC1. Conditions: cited from earlier work.

T1 sequence (P07437 whole entry): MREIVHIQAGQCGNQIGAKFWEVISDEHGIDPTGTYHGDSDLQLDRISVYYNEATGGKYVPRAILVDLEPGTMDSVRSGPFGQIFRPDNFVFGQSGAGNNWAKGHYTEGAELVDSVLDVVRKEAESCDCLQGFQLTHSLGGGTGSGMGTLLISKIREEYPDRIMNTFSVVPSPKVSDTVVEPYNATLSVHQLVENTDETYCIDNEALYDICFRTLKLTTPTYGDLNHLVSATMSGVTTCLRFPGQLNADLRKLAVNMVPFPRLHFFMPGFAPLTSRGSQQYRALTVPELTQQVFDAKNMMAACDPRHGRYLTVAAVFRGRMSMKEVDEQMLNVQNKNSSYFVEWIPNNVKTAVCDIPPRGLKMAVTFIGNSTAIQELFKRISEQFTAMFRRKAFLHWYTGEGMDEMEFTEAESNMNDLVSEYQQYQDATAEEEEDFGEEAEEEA
T1 sequence (P68363 whole entry): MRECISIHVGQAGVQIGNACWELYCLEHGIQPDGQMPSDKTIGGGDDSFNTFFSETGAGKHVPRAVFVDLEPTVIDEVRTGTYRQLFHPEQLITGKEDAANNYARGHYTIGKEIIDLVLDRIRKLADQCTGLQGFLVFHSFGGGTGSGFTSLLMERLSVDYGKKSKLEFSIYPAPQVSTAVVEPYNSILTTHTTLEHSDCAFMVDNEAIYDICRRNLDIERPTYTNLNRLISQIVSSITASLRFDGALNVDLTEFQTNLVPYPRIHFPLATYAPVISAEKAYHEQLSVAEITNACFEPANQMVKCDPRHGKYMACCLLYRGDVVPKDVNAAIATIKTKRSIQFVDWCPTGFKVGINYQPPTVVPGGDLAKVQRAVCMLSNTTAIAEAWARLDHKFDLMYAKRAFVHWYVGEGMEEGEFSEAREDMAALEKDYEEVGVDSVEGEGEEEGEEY

Usually melting point stands for the temperature of the solid-liquid transition. Compound `COc1cc(C(=O)NC(=Cc2ccco2)C(=O)Nc2ccc3ccccc3c2)cc(OC)c1OC` (hydrate or solvate) [Compound 3, N-(1-(furan-2-yl)-3-(naphthalen-2-ylamino)-3-oxoprop-1-en-2-yl)-3,4,5-trimethoxybenzamide] came in with a melting point of 270 to 272 °C.

Broadly, the IC50 is the concentration that gives 50% inhibition. `Nc1ccccc1NC(=O)c1cnccn1` [BG45]: the IC50 with pan HDAC is 5.51 µM.

`COc1ccc(/C=C\c2cc(OC)c(OC)c(OC)c2)cc1O` [CA-4, combretastatin A-4, reference compound]: the IC50 in the data set on HepG2 cells worked out at 0.54 ± 0.04 µM; with HL-7702 cells it was 8.86 ± 0.67 µM. For the same compound, the “tubulin polymerization percentage inhibition” value at β-tubulin is listed as 88.72%.

`COc1cc(C(=O)NC(=Cc2ccco2)C(=O)Nc2cccc(Cl)c2)cc(OC)c1OC` [Compound 2a, N-(3-(3-chlorophenylamino)-1-(furan-2-yl)-3-oxoprop-1-en-2-yl)-3,4,5-trimethoxybenzamide] yielded a melting point of 248 to 250 °C. The compound further showed an IC50 in the data set with HepG2 cells of 68.9 ± 3.32 µM.

In turn, `COc1cc(C(=O)NC(=Cc2ccco2)C(=O)Nc2ccc(Cl)cc2)cc(OC)c1OC` [Compound 2b, N-(3-(4-chlorophenylamino)-1-(furan-2-yl)-3-oxoprop-1-en-2-yl)-3,4,5-trimethoxybenzamide] yielded a melting point of 241 to 243 °C. This compound returned an IC50 in the data set on HepG2 cells of 23.3 ± 1.03 µM.

Compound `COc1cc(C(=O)NC(=Cc2ccco2)C(=O)Nc2ccc(C)cc2)cc(OC)c1OC` [Compound 2c, N-(1-(furan-2-yl)-3-oxo-3-(p-tolylamino)prop-1-en-2-yl)-3,4,5-trimethoxybenzamide] came in with a melting point of 261 to 263 °C. In the data set on HepG2 cells, this compound returned an IC50 of 22 ± 0.96 µM.

For `COc1cc(C(=O)NC(=Cc2ccco2)C(=O)Nc2ccc3ccccc3c2)cc(OC)c1OC` [Compound 3, N-(1-(furan-2-yl)-3-(naphthalen-2-ylamino)-3-oxoprop-1-en-2-yl)-3,4,5-trimethoxybenzamide], the midpoint of inhibition in the data set on HepG2 cells, the IC50, lay at 16.2 ± 0.79 µM.

Compound `COc1cc(C(=O)NC(=Cc2ccco2)C(=O)NNC(=O)c2cccc(O)c2)cc(OC)c1OC` [Compound 4a, N-(1-(furan-2-yl)-3-(2-(3-hydroxybenzoyl)hydrazinyl)-3-oxoprop-1-en-2-yl)-3,4,5-trimethoxybenzamide] yielded a melting point of 235 to 237 °C. In addition, half-maximal inhibition in the data set with HepG2 cells (IC50) required 13.4 ± 0.56 µM.

For the compound `COc1cc(C(=O)NC(=Cc2ccco2)C(=O)NNC(=O)c2ccncc2)cc(OC)c1OC` [Compound 4b, N-(1-(furan-2-yl)-3-(2-isonicotinoylhydrazinyl)-3-oxoprop-1-en-2-yl)-3,4,5-trimethoxybenzamide], the melting point lay within 228 to 230 °C. In addition, the 50% inhibitory concentration (IC50) in the data set with HepG2 cells is 8.36 ± 0.51 µM.

With `COc1cc(C(=O)NC(=Cc2ccco2)C(=O)NNC(=O)c2ccc(NC(=O)c3cccnc3)cc2)cc(OC)c1OC` [Compound 5, N-(4-(2-(3-(furan-2-yl)-2-(3,4,5 trimethoxybenzamido)acryloyl)hydrazinecarbonyl)phenyl)nicotinamide], the melting point is 217 to 219 °C. In the data set with HepG2 cells, this compound displayed an IC50 of 3.25 ± 0.25 µM.

`COc1cc(C(=O)NC(=Cc2ccc(C#N)cc2)C(=O)NNC(=O)/C(=C/c2ccco2)NC(=O)c2cc(OC)c(OC)c(OC)c2)cc(OC)c1OC` [Compound 6b, N-((1Z)-3-(2-(3-(4-cyanophenyl)-2-(3,4,5-trimethoxybenzamido)acryloyl)hydrazinyl)-1-(furan-2-yl)-3-oxoprop-1-en-2-yl)-3,4,5-trimethoxybenzamide]: the melting point is 223 to 225 °C. The same compound yielded a half-maximal inhibitory concentration (IC50) in the data set with HepG2 cells of 0.92 ± 0.1 µM. Besides, half-maximal inhibition in the data set on HL-7702 cells (IC50) was put at 11.1 ± 0.18 µM.

The compound `COc1cc(C(=O)NC(=Cc2ccc(N(C)C)cc2)C(=O)NNC(=O)/C(=C/c2ccco2)NC(=O)c2cc(OC)c(OC)c(OC)c2)cc(OC)c1OC` [Compound 6c, N-((1Z)-3-(2-(3-(4-(dimethylamino)phenyl)-2-(3,4,5-trimethoxybenzamido)acryloyl)hydrazinyl)-1-(furan-2-yl)-3-oxoprop-1-en-2-yl)-3,4,5-trimethoxybenzamide] yielded a melting point of 215 to 217 °C. Further, the IC50 in the data set on HepG2 cells was found to be 1.12 ± 0.12 µM. In addition, half-maximal inhibition in the data set with HL-7702 cells (IC50) required 9.88 ± 0.14 µM.

In turn, `COc1ccc(C=C(NC(=O)c2cc(OC)c(OC)c(OC)c2)C(=O)NNC(=O)/C(=C/c2ccco2)NC(=O)c2cc(OC)c(OC)c(OC)c2)cc1` [Compound 6d, N-(3-(2-((Z)-3-(furan-2-yl)-2-(3,4,5-trimethoxybenzamido)acryloyl)hydrazinyl)-1-(4-methoxyphenyl)-3-oxoprop-1-en-2-yl)-3,4,5-trimethoxybenzamide] gave a melting point of 206 to 208 °C. In addition, in the data set on HepG2 cells, the IC50 was found to be 3.81 ± 0.18 µM.

Take `COc1cc(C=C(NC(=O)c2cc(OC)c(OC)c(OC)c2)C(=O)NNC(=O)/C(=C/c2ccco2)NC(=O)c2cc(OC)c(OC)c(OC)c2)cc(OC)c1OC` [Compound 6e, N-(3-(2-((Z)-3-(furan-2-yl)-2-(3,4,5-trimethoxybenzamido)acryloyl)hydrazinyl)-3-oxo-1-(3,4,5-trimethoxyphenyl)prop-1-en-2-yl)-3,4,5-trimethoxybenzamide]: the melting point is 212 to 214 °C. Also, the IC50 with HepG2 cells worked out at 3.98 ± 0.09 µM.

Take `Nc1ccccc1NC(=O)c1ccc(C(C(=O)Nc2ccccc2)C(=O)Nc2ccccc2)cc1` [III]: in the data set on HDAC1, the “fold potency for HDAC1 compared with HDAC2” value is recorded as 10 fold and the “fold potency for HDAC1 compared with HDAC3” value is 20 fold.

Turning to `Cc1ccc(/C=N/NC(=O)c2ccc(NC(=O)c3cccnc3)cc2)cc1` [IV], the IC50 in the data set with pan HDAC is 4.65 µM.

`O=C(CCCCCCC(=O)Nc1ccccc1)NO` [SAHA, suberoylanilide hydroxamic acid, reference compound] returned an IC50 in the data set on HepG2 cells of 2.91 ± 0.15 µM.
